# Results as given in patent US20030134859A1 (SANKYO COMPANY, LIMITED, priority 2000, published 2003).
# Structures can show the parent of a compound that is named as a salt.
# Tested on: TNF-α production
# Experiment: Inhibitory activity against cytokine (TNF-α) production in LPS-stimulated RAW264.7 cells
# Assay type: cell-based, mouse
# Conditions: Mus musculus, RAW264.7, 15 h, 1 μM test compound, LPS 10 ng/mL
# Outline: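 Mouse RAW264.7 macrophages (5,000 cells/well) stimulated with 10 ng/mL LPS (final) and treated with test compound at 1 μM final for 15 h at 37 °C. Supernatant mouse TNF-α measured by ELISA; % inhibition = 100−(A−B)/(C−B)×100, using unstimulated and LPS-only controls.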
row,SMILES,inhibition at 1 µM [%]
1,"O=C(Nc1ccc(-c2ccccn2)cc1)c1cc([N+](=O)[O-])ccc1Cl [Example 8, N-[4-(2-Pyridyl)phenyl]-(2-chloro-5-nitrophenyl)carboxamide]",18.9
2,"Cc1ccc(-c2nc(NC(=O)c3cc([N+](=O)[O-])ccc3Cl)sc2C)cc1Cl [Example 46, N-[4-(3-Chloro-4-methylphenyl)-5-methylthiazol-2-yl]-(2-chloro-5-nitrophenyl)carboxamide]",30.7
3,"O=C(Nc1ccc2c3c(cccc13)CC2)c1cc([N+](=O)[O-])ccc1Cl [Example 54, N-(Acenaphthen-5-yl)-(2-chloro-5-nitrophenyl)carboxamide]",16.8
4,"O=C(Nc1c(Cl)ncnc1Cl)c1cc([N+](=O)[O-])ccc1Cl [Example 81, N-(4,6-Dichloropyrimidin-5-yl)-(2-chloro-5-nitrophenyl)carboxamide]",32
5,"O=C(Nc1nc(-c2ccc(F)c(F)c2)cs1)c1cc([N+](=O)[O-])ccc1Cl [Example 111, N-[4-(3,4-Difluorophenyl)thiazol-2-yl]-(2-chloro-5-nitrophenyl)carboxamide]",28.7
6,"CCCCCCN(CCCCCC)c1ccc(NC(=O)c2cc([N+](=O)[O-])ccc2Cl)cc1 [Example 138, N-[4-(N,N-di-n-Hexylamino)phenyl]-(2-chloro-5-nitrophenyl)carboxamide]",17.8
7,"CCCCCCNc1ccc(-c2ccc(NC(=O)c3cc([N+](=O)[O-])ccc3Cl)cc2)cc1 [Example 195, N-[4-[4-(N-Hexylamino)phenyl]phenyl]-(2-chloro-5-nitrophenyl)carboxamide]",16.1
8,"CCCCCCN(C)c1ccc(-c2ccc(NC(=O)c3cc([N+](=O)[O-])ccc3Cl)cc2)cc1 [Example 196, N-[4-[4-(N-Hexyl-N-methylamino)phenyl]phenyl]-(2-chloro-5-nitrophenyl)carboxamide]",15.3
9,"CCCCCCN(CC)c1ccc(-c2ccc(NC(=O)c3cc([N+](=O)[O-])ccc3Cl)cc2)cc1 [Example 197, N-[4-[4-(N-Ethyl-N-hexylamino)phenyl]phenyl]-(2-chloro-5-nitrophenyl)carboxamide]",21.6
10,"CCCCCCCCNc1ccc(-c2ccc(NC(=O)c3cc([N+](=O)[O-])ccc3Cl)cc2)cc1 [Example 219, N-[4-[4-(N-Octylamino)phenyl]phenyl]-(2-chloro-5-nitrophenyl)carboxamide]",21.7
11,"CCCCCCCCN(CCCCCC)c1ccc(-c2ccc(NC(=O)c3cc([N+](=O)[O-])ccc3Cl)cc2)cc1 [Example 220, N-[4-[4-(N-Hexyl-N-octylamino)phenyl]phenyl]-(2-chloro-5-nitrophenyl)carboxamide mono-hydrochloride]",16.3
12,"CCCCCCCCN(CCCC)c1ccc(-c2ccc(NC(=O)c3cc([N+](=O)[O-])ccc3Cl)cc2)cc1.Cl [Example 223, N-[4-[4-(N-Butyl-N-octylamino)phenyl]phenyl]-(2-chloro-5-nitrophenyl)carboxamide mono-hydrochloride]",28.2
13,"CCCCCCCCN(CCC)c1ccc(-c2ccc(NC(=O)c3cc([N+](=O)[O-])ccc3Cl)cc2)cc1 [Example 224, N-[4-[4-(N-Octyl-N-propylamino)phenyl]phenyl]-(2-chloro-5-nitrophenyl)carboxamide]",22.4
14,"CC(C)(C)OC(=O)Nc1cccc(-c2csc(NC(=O)c3cc([N+](=O)[O-])ccc3Cl)n2)c1 [Example 234, N-[4-(3-tert-Butoxycarbonylaminophenyl)thiazol-2-yl]-(2-chloro-5-nitrophenyl)carboxamide]",32.5
15,"CS(=O)(=O)N(c1ccc(-c2ccc(NC(=O)c3cc([N+](=O)[O-])ccc3Cl)cc2)cc1)S(C)(=O)=O [Example 235, N-[4-[4-(N,N-Dimethanesulfonylamino)phenyl]phenyl]-(2-chloro-5-nitrophenyl)carboxamide]",40.2
16,"O=C(Nc1ccc(CCNC(=S)Nc2cccnc2)cc1)c1cc([N+](=O)[O-])ccc1Cl [Example 273, N-[4-[2-(Pyridin-3-yl)aminothiocarbonylaminoethyl]phenyl]-(2-chloro-5-nitrophenyl)carboxamide]",19.9

# Tested on: Rat white adipocytes
# Experiment: Stimulation of differentiation of the adipocytes (Oil Red O)
# Assay type: cell-based
# Conditions: Rattus norvegicus, Adipocyte, 120 h, 100 nM test compound; 5 days; Oil Red O ABS550; control = 100%, blank = 0%; Table 7; read-out: Rate of Differentiation (%)
# Outline: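 Oil Red O lipid staining, absorbance 550 nm after DMSO extraction, quantified differentiation of rat white adipocytes exposed 5 days to compound (final 100 nM, 0.1% DMSO) in differentiation medium. Percent differentiation normalised between cell-free blank (0%) and DMSO control (100%).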
row,SMILES,activity at 0.1 µM [%]
1,"Cc1ccc(NC(=O)c2cc([N+](=O)[O-])ccc2Cl)cc1 [Example 1, N-(4-Methylphenyl)-(2-chloro-5-nitrophenyl)carboxamide]",121
2,"O=C(Nc1ccc(-c2ccccn2)cc1)c1cc([N+](=O)[O-])ccc1Cl [Example 8, N-[4-(2-Pyridyl)phenyl]-(2-chloro-5-nitrophenyl)carboxamide]",114
3,"Cc1ccc(-c2nc(NC(=O)c3cc([N+](=O)[O-])ccc3Cl)sc2C)cc1Cl [Example 46, N-[4-(3-Chloro-4-methylphenyl)-5-methylthiazol-2-yl]-(2-chloro-5-nitrophenyl)carboxamide]",124
4,"O=C(Nc1ccc2c3c(cccc13)CC2)c1cc([N+](=O)[O-])ccc1Cl [Example 54, N-(Acenaphthen-5-yl)-(2-chloro-5-nitrophenyl)carboxamide]",118
5,"Cc1ccnc(NC(=O)c2cc([N+](=O)[O-])ccc2Cl)n1 [Example 65, N-(4-Methylpyrimidin-2-yl)-(2-chloro-5-nitrophenyl)carboxamide]",112
6,"COC(=O)c1sccc1NC(=O)c1cc([N+](=O)[O-])ccc1Cl [Example 66, N-(2-Methoxycarbonylthiophen-3-yl)-(2-chloro-5-nitrophenyl)carboxamide]",113
7,"Cn1c(NC(=O)c2cc([N+](=O)[O-])ccc2Cl)nc2ccccc21 [Example 82, N-(1-Methylbenzimidazol-2-yl)-(2-chloro-5-nitrophenyl)carboxamide]",114
8,"O=C(Nc1nncs1)c1cc([N+](=O)[O-])ccc1Cl [Example 85, N-(1,3,4-Thiadiazol-2-yl)-(2-chloro-5-nitrophenyl)carboxamide]",125
9,"N=C(N)NS(=O)(=O)c1ccc(NC(=O)c2cc([N+](=O)[O-])ccc2Cl)cc1 [Example 106, N-[4-(Amidinoaminosulfonyl)phenyl]-(2-chloro-5-nitrophenyl)carboxamide]",113
10,"Cc1ccc(S(=O)(=O)Nc2ccc(NC(=O)c3cc([N+](=O)[O-])ccc3Cl)cc2)cc1 [Example 116, N-[4-(4-Toluenesulfonylamino)phenyl]-(2-chloro-5-nitrophenyl)carboxamide]",124
11,"CC(=O)Nc1ccc(NC(=O)c2cc([N+](=O)[O-])ccc2Cl)cc1 [Example 117, N-(4-Acetylaminophenyl)-(2-chloro-5-nitrophenyl)carboxamide]",122
12,"O=C(Nc1ccc(NC(=O)c2cc([N+](=O)[O-])ccc2Cl)cc1)c1ccccc1 [Example 119, N-(4-Benzoylaminophenyl)-(2-chloro-5-nitrophenyl)carboxamide]",135
13,"O=C(Nc1ccc(NC(=O)c2cc([N+](=O)[O-])ccc2Cl)cc1)c1ccncc1 [Example 125, N-[4-(Pyridin-4-ylcarbonylamino)phenyl]-(2-chloro-5-nitrophenyl)carboxamide]",132
14,"CCCCCCN(CCCCCC)c1ccc(NC(=O)c2cc([N+](=O)[O-])ccc2Cl)cc1 [Example 138, N-[4-(N,N-di-n-Hexylamino)phenyl]-(2-chloro-5-nitrophenyl)carboxamide]",126
15,"CN(C)c1cccc(NC(=O)c2cc([N+](=O)[O-])ccc2Cl)c1 [Example 176, N-(3-Dimethylamino)phenyl-(2-chloro-5-nitrophenyl)carboxamide]",118
16,"O=C(Nc1ccc(S(=O)(=O)Nc2ccc(N3CCOCC3)cc2)cc1)c1cc([N+](=O)[O-])ccc1Cl [Example 179, N-[4-[4-(Morpholin-4-yl)phenyl]aminosulfonyl]phenyl-(2-chloro-5-nitrophenyl)carboxamide]",128
17,"CCCNc1ccc(NC(=O)c2cc([N+](=O)[O-])ccc2Cl)cc1 [Example 181, N-[4-(N-Propylamino)phenyl]-(2-chloro-5-nitrophenyl)carboxamide]",128
